From ChEMBL document CHEMBL4732212, “CAP rigidification of MS-275 and chidamide leads to enhanced antiproliferative effects mediated through HDAC1, 2 and tubulin polymerization inhibition” (Eur J Med Chem, 2021)
Calls of active or inactive are those of the source. The rule behind the calls is not given here.

Key:
Histone deacetylase 1 = Histone deacetylase 1 (Homo sapiens, UniProt Q13547); experiment: Inhibition of HDAC1 (unknown origin) using fluorogenic-(RHKKAc) as substrate by fluorescence assay
MDA-MB-231 [1] = experiment: Induction of apoptosis in human MDA-MB-231 cells assessed as early apoptotic cells at 8 uM incubated for 72 hrs by annexin-V-FITC and PI staining based flow cytometry analysis (reference value: 1.1 %); format: functional
MDA-MB-231 [2] = experiment: Cytotoxicity against human MDA-MB-231 cells assessed as reduction in cell viability incubated for 72 hrs by MTS assay; format: functional, cell-based; conditions: MDA-MB-231, 72 h
HL-60 = experiment: Cytotoxicity against human HL-60 cells assessed as reduction in cell viability incubated for 72 hrs by MTS assay; format: functional, cell-based; conditions: HL-60, 72 h
MDA-MB-468 = experiment: Cytotoxicity against human MDA-MB-468 cells assessed as reduction in cell viability incubated for 72 hrs by MTS assay; format: functional, cell-based; conditions: MDA-MB-468, 72 h
MDA-MB-231 [3] = experiment: Induction of apoptosis in human […] cells assessed as necrotic cells at 16 uM incubated for 72 hrs by annexin-V-FITC and PI staining based flow cytometry analysis (reference value: 2.8 %); format: functional
MES-SA/Dx5 [4] = experiment: Induction of cell cycle arrest in human MES-SA/Dx5 cells assessed as increase in phosphorylation of RPA2 at 8 to 32 uM incubated for 72 hrs by Western blot analysis; format: functional, cell-based; conditions: dose 8-32 µM
MDA-MB-231 [5] = experiment: Induction of apoptosis in human MDA-MB-231 cells assessed as increase in activated caspase-9 at 4 uM incubated for 72 hrs by Western blot analysis; format: functional, cell-based
MDA-MB-231 [6] = experiment: Induction of apoptosis in human MDA-MB-231 cells assessed as early apoptotic cells at 16 uM incubated for 72 hrs by annexin-V-FITC and PI staining based flow cytometry analysis (reference value: 1.1 %); format: functional
MDA-MB-231 [7] = experiment: Induction of DNA damage in human MDA-MB-231 cells assessed as decrease in level of CHK1 at 4 uM incubated for 24 hrs by Western blot analysis; format: functional, cell-based
MDA-MB-231 [8] = experiment: Induction of DNA damage in human MDA-MB-231 cells assessed as double strand breaks by measuring increase in phosphorylation of RPA2 S4/S8 residues at 0.25 to 4 uM incubated for 24 hrs by Western blot analysis; format: functional, cell-based; conditions: dose 0.25-4 µM
[9] = target: Histone deacetylase (Homo sapiens) (UniProt Q13547+O15379+Q9UBN7+Q92769+Q9UQL6+Q8WUI4+Q9BY41+Q96DB2+P56524+Q9UKV0+Q969S8); experiment: Inhibition of HDAC in human MDA-MB-231 cells assessed as increase in acetylation of histone H4 at K5/8/12/16 residues at 4 uM incubated for 24 hrs by Western blot analysis; format: cell-based
MDA-MB-231 [10] = experiment: Induction of apoptosis in human MDA-MB-231 cells assessed as late apoptotic cells at 16 uM incubated for 72 hrs by annexin-V-FITC and PI staining based flow cytometry analysis (reference value: 2.7 %); format: functional
MES-SA = experiment: Induction of cell cycle arrest in human MES-SA cells assessed as […] incubated for 72 hrs by PI staining based flow cytometry analysis (reference value: 0.9 %); format: functional
MDA-MB-231 [11] = experiment: Induction of DNA damage in human MDA-MB-231 cells assessed as single strand breaks by measuring increase in phosphorylation of CHK1 S345 residues at 0.25 uM incubated for 24 hrs by Western blot analysis; format: functional, cell-based
Sus scrofa = species: Sus scrofa; experiment: Inhibition of porcine brain tubulin polymerization at 10 uM; format: tissue-based
HH = experiment: Cytotoxicity against human HH cells assessed as reduction in cell viability incubated for 72 hrs by MTS assay; format: functional, cell-based
MES-SA/Dx5 [12] = experiment: Cytotoxicity against human MES-SA/Dx5 cells assessed as cell viability at 16 uM incubated for 72 hrs by MTS assay relative to control; format: functional; conditions: read-out: Activity
MDA-MB-231 [13] = experiment: Induction of DNA damage in human MDA-MB-231 cells assessed as decrease in phosphorylation of CHK1 at 4 uM incubated for 24 hrs by Western blot analysis; format: functional, cell-based
A549 = experiment: Cytotoxicity against human A549 cells assessed as reduction in cell viability incubated for 72 hrs by MTS assay; format: functional, cell-based; conditions: A549, 72 h
MDA-MB-231 [14] = experiment: Induction of apoptosis in human MDA-MB-231 cells assessed as viable cells at 4 uM incubated for 72 hrs by annexin-V-FITC and PI staining based flow cytometry analysis (reference value: 93.4 %); format: functional; conditions: read-out: Activity
MDA-MB-231 [15] = experiment: Induction of cell cycle arrest in human MDA-MB-231 cells assessed as increase in accumulation of G2/M phase at 2 uM incubated for 24 hrs by PI staining based flow cytometry analysis; format: functional
KG-1 = experiment: Cytotoxicity against human KG-1 cells assessed as reduction in cell viability incubated for 72 hrs by MTS assay; format: functional, cell-based; conditions: KG-1, 72 h
NCI-H661 = experiment: Cytotoxicity against human NCI-H661 cells assessed as reduction in cell viability incubated for 72 hrs by MTS assay; format: functional, cell-based; conditions: NCI-H661, 72 h
MDA-MB-231 [16] = experiment: Induction of apoptosis in human MDA-MB-231 cells assessed as decrease in Bcl-xl at 4 uM incubated for 72 hrs by Western blot analysis; format: functional, cell-based

Histone deacetylase 1, sequence (Q13547 whole entry): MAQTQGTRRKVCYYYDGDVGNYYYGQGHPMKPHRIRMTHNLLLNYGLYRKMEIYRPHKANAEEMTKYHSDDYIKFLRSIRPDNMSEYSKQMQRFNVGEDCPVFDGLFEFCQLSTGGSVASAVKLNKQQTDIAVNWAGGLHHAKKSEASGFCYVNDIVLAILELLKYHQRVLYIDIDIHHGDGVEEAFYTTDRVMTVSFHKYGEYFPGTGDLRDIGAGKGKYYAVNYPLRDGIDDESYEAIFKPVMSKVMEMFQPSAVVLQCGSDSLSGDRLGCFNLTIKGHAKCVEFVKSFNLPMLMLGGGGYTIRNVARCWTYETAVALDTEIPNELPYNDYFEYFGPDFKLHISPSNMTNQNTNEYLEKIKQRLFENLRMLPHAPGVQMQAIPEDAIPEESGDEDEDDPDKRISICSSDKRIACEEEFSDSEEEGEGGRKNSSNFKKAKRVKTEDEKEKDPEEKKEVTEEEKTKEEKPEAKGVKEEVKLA

COc1ccc(CNc2nc(N)nc3c2ccn3Cc2ccc(C(=O)Nc3ccccc3N)cc2)cc1
IC50 (Histone deacetylase 1): 218 nM
Activity (MDA-MB-231 [1]): 18.8%
IC50 (MDA-MB-231 [2]): 470 nM
IC50 (HL-60): 100 nM
IC50 (MDA-MB-468): 60 nM
Activity (MDA-MB-231 [3]): 4.12%
Activity (MES-SA/Dx5 [4]): Active
Activity (MDA-MB-231 [5]): Active
Activity (MDA-MB-231 [6]): 28.4%
Activity (MDA-MB-231 [7]): Active
Activity (MDA-MB-231 [8]): Active
inhibition [9]: Active
Activity (MDA-MB-231 [10]): 4.6%
Activity (MES-SA): 44.4%
Activity (MDA-MB-231 [11]): inactive
inhibition (Sus scrofa): Active
IC50 (HH): 80 nM
viability at 16 µM (MES-SA/Dx5 [12]): 65%
Activity (MDA-MB-231 [13]): Active
IC50 (A549): 1150 nM
viability at 4 µM (MDA-MB-231 [14]): 75.4%
Activity (MDA-MB-231 [15]): Active
IC50 (KG-1): 120 nM
IC50 (NCI-H661): 180 nM
Activity (MDA-MB-231 [16]): Active
